Drawing on BindingDB's records for doi:10.1016/j.ejmech.2019.04.053 (China Pharmaceutical University, 2019), this text covers IC50 for five compounds.

One may read the IC50 as the concentration that inhibits the measured activity by half.

A short description of the experiment: Inhibition of human TRKA expressed in human TF1 cells by CellTiter-Glo Luminescent assay. (In general: Cellular ATP, detected with luciferase, serves as a proxy for viable cell number.)

Consider `COCC[C@@H]1C[C@@H](NC(=O)Nc2c(C)c(-c3cnn(C)c3)nn2-c2ccccc2)[C@H](c2cnc(Cl)c(F)c2)N1`, for which the IC50 is less than 100 nM.

In turn, `COCC[C@@H]1C[C@@H](NC(=O)Nc2c(C)c(-c3cnc4c(c3)c(N=S(C)(C)=O)nn4C)nn2-c2ccccc2)[C@H](c2ccc(F)c(F)c2)N1` yielded a half-maximal inhibitory concentration (IC50) of less than 100 nM. As for `COCCN1C[C@@H](NC(=O)Nc2c(C)c(-c3cnn(C)c3)nn2-c2ccccc2)[C@@H]2c3ccccc3CC[C@H]21`, the figure is 0.59 nM. Then `Cc1c(OCC2CCN(C)CC2)nn(-c2ccccc2)c1NC(=O)N[C@H]1CN(CC(F)(F)F)[C@@H]2COc3ccccc3[C@H]12`, with 0.64 nM; and `COCC[C@@H]1C[C@@H](NC(=O)Nc2c(C)c(-c3cnn(C)c3)nn2-c2ccccc2)[C@@H]2c3ccccc3C(F)(F)CN12`, with 0.64 nM.
